In patent US9029396B2, “Substituted indole derivatives” (Novartis AG, priority 2011, dated 2015):
In brackets after ≈: the same amount, converted by molar mass.

Columns and labels:
[1] = target: T1, PKC-alpha (Homo sapiens, UniProt P17252); assay: Protein kinase C alpha assay (Caliper mobility shift); assay type: biochemical; conditions: full length human recombinant enzyme, 17 μM ATP; read-out: PKCα (IC50 in nM)
T1 construct: Both enzymes were full length human recombinant protein expressed in insect cells; purchased Invitrogen AG, Basel, Switzerland; host or cells: insect cells
Method: (§1) The compounds of the invention were tested for their activity on different PKC isotypes according to the following method. All assays were performed in 384 well microtiter plates. Each assay plate contained 8-point serial dilutions for 40 test compounds, as well as two 16-point serial dilutions of staurosporine as reference compound, plus 16 high- and 16 low controls. Liquid handling and incubation steps were done on a automated workstation equipped with a Innovadyne Nanodrop Express.
(§2) The assay plates were prepared by addition of 50 nL per well of compound solution in 90% DMSO. The kinase reactions were started by stepwise addition of 4.5 μl per well of a 2× peptide/ATP-solution and 4.5 μl per well of a 2× enzyme solution. The final concentration of reagents during kinase reaction were: 50 mM HEPES, pH 7.5, 1 mM DTT, 0.02% Tween20, 0.02% BSA, 0.6% DMSO, 10 mM beta-glycerophosphate, and 10 μM sodium orthovanadate. The peptide substrate used in the PKC-alpha and PKC-theta assays was Dy495-X5-ME-Mpr-RFARKGSLRQKNV-COOH. […]
(§3) Plates with terminated kinase reactions were transferred to the Caliper LC3000 workstations for reading. Phosphorylated and unphosphorylated peptides were separated using the Caliper microfluidic mobility shift technology and Kinase activities were calculated from the amounts of formed phospho-peptide.

[2] = Dog pharmacokinetics after oral administration of compound of example No. 1; assay type: in vivo, Beagle dogs; conditions: dog, blood
Method: A single dose of the compound of example 1 (3.0 mg/kg) was administered p.o. to 3 male Beagle dogs. Compound 1 was dosed as an aqueous suspension of the crystalline monohydrate form in Methylcellulose (0.5%): Tween 80 (1%) (90:10). Blood was taken in regular intervals by venipuncture, and the samples were analyzed for a period of up to 24 hours. The compounds of the examples 1, 2, and 3 were quantitatively assessed over time, and the results are tabulated below:
Key pharmacokinetic parameters (mean values±standard deviations (n=3) for 1, 2 and 3 after oral dosing of example No. 1.

[3] = Dog pharmacokinetics after oral administration of compound of example No. 3 (mono acetate salt); assay type: in vivo, Beagle dogs; conditions: blood
Method: Compound of Example No. 3 was administered orally as the mono acetate salt in a hard gelatine capsule to 6 fasted male Beagle dogs. A nominal dose of 100 mg/dog was given, resulting in dose of 8.9-11.3 mg/kg (weight of the dogs ranging from 8.9-11.3 kg). Blood was taken by venipuncture, and sampling was performed up to 32 h. Bioanalytic determination was performed for 3 and is tabulated below:
Key pharmacokinetic parameters (mean values or range) for compound No. 3 after oral dosing as described above.

[4] = Stability in gastric and intestinal simulated fluids at 37° C.; assay type: physicochemical
Method: Stability Assessments Stability of Cpd. Example No. 1 in Gastric and Intestinal Simulated Fluids at 37° C.:
Stability of compound Example No. 3
(Free form/acetate salt form) in gastric and intestinal simulated fluids at 37° C.: […]

[5] = Solubility in simulated gastric and intestinal fluids; assay type: physicochemical; conditions: Free Form
Source text: Solubility of compound Example No. 1 in simulated gastric and in simulated intestinal fluids at room temperature
Solubility of compound Example No. 3 (free form/acetate salt form) in simulated gastric fluids: […]

[6] = target: T2, PKC-theta (Homo sapiens, UniProt Q04759); assay: Protein kinase C theta assay (Caliper mobility shift); assay type: biochemical; conditions: full length human recombinant enzyme, 70 μM ATP; read-out: PKCθ (IC50 in nM)
T2 construct: Both enzymes were full length human recombinant protein expressed in insect cells; purchased Invitrogen AG, Basel, Switzerland; host or cells: insect cells
T2 sequence (Q04759 whole entry): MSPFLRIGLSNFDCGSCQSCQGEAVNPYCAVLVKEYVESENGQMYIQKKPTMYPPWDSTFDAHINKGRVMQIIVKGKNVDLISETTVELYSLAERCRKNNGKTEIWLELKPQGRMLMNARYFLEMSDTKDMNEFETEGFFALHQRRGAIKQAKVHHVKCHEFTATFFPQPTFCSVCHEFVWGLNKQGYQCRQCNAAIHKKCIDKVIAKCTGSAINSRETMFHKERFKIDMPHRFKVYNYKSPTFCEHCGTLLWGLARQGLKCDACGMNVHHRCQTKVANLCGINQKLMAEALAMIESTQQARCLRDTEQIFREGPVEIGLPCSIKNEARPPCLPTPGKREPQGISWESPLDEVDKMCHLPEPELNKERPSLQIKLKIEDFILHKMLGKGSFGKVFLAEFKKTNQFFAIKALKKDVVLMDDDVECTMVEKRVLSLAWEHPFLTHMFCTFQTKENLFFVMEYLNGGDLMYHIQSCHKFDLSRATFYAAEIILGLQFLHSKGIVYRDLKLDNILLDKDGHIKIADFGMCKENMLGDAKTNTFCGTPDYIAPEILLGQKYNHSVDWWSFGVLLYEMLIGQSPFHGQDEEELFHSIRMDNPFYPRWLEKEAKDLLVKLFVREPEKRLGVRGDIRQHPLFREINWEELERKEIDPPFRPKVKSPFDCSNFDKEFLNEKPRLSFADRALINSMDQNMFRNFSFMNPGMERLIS
Method: as §1, §2, §3

Cc1cccc2c(C3=C(c4nc(N5CCNC6(CC6)C5)cc5ccccc45)C(=O)NC3=O)c[nH]c12 [Example 3, 3-[3-(4,7-diaza-spiro[2.5]oct-7-yl)-isoquinolin-1-yl]-4-(7-methyl-1H-indol-3-yl)-pyrrole-2,5-dione]
IC50 [1]: 0.4 nM | concentration at 0.083 h ([2]; po, male Beagle dogs, example 1 3.0 mg/kg p.o. (crystalline monohydrate suspension), 0.083 h): 15 nM | concentration at 0.25 h ([2]; po, male Beagle dogs, example 1 3.0 mg/kg p.o., 0.25 h): 167 nM | concentration at 0.5 h ([2]; po, male Beagle dogs, example 1 3.0 mg/kg p.o., 0.5 h): 757 nM | concentration at 0.75 h ([2]; po, male Beagle dogs, example 1 3.0 mg/kg p.o., 0.75 h): 1200 nM | concentration at 1 h ([2]; po, male Beagle dogs, example 1 3.0 mg/kg p.o., 1 h): 1310 nM | concentration at 2 h ([2]; po, male Beagle dogs, example 1 3.0 mg/kg p.o., 2 h): 1120 nM | concentration at 3 h ([2]; po, male Beagle dogs, example 1 3.0 mg/kg p.o., 3 h): 959 nM | concentration at 4 h ([2]; po, male Beagle dogs, example 1 3.0 mg/kg p.o., 4 h): 762 nM | concentration at 7 h ([2]; po, male Beagle dogs, example 1 3.0 mg/kg p.o., 7 h): 403 nM | concentration at 24 h ([2]; po, male Beagle dogs, example 1 3.0 mg/kg p.o., 24 h): 67.9 nM | Tmax ([2]; male, Beagle, 3 mg/kg, mean ± SD (n=3), after oral dosing of example No. 1 to dogs): 54 ± 6 min | concentration at 0.5 h ([3]; po, fasted male Beagle dogs, example No. 3 mono acetate salt p.o. 100 mg/dog, 0.5 h): 936 nM | concentration at 1 h ([3]; po, fasted male Beagle dogs, example No. 3 mono acetate salt p.o. 100 mg/dog, 1 h): 2160 nM | concentration at 2 h ([3]; po, fasted male Beagle dogs, example No. 3 mono acetate salt p.o. 100 mg/dog, 2 h): 2550 nM | concentration at 3 h ([3]; po, fasted male Beagle dogs, example No. 3 mono acetate salt p.o. 100 mg/dog, 3 h): 2000 nM | concentration at 4 h ([3]; po, fasted male Beagle dogs, example No. 3 mono acetate salt p.o. 100 mg/dog, 4 h): 1900 nM | concentration at 6 h ([3]; po, fasted male Beagle dogs, example No. 3 mono acetate salt p.o. 100 mg/dog, 6 h): 1490 nM | concentration at 8 h ([3]; po, fasted male Beagle dogs, example No. 3 mono acetate salt p.o. 100 mg/dog, 8 h): 1240 nM | concentration at 24 h ([3]; po, fasted male Beagle dogs, example No. 3 mono acetate salt p.o. 100 mg/dog, 24 h): 276 nM | concentration at 32 h ([3]; po, fasted male Beagle dogs, example No. 3 mono acetate salt p.o. 100 mg/dog, 32 h): 116 nM | concentration at 0.25 h ([3]; po, fasted male Beagle dogs, example No. 3 mono acetate salt, capsule p.o. 100 mg/dog, 0.25 h): 177 nM | Tmax ([3]; male, Beagle, dog, 100 mg, range, after oral dosing of example No. 3 mono acetate salt to dogs): 30 to 120 min | Amount in Area % of compound example No. 3 ([4]; Acetate Salt, FaSSIF pH 6.5, 37° C., 0 hours): 100 Area % | Amount in Area % of compound example No. 3 ([4]; Acetate Salt, FaSSIF pH 6.5, 37° C., 1 hours): 98.6 Area % | Amount in Area % of compound example No. 3 ([4]; Acetate Salt, FaSSIF pH 6.5, 37° C., 2.5 hours): 98.7 Area % | Amount in Area % of compound example No. 3 ([4]; Acetate Salt, FaSSIF pH 6.5, 37° C., 4 hours): 95.1 Area % | Amount in Area % of compound example No. 3 ([4]; Acetate Salt, FaSSIF pH 6.5, 37° C., 7 hours): 88.5 Area % | Amount in Area % of compound example No. 3 ([4]; Acetate Salt, FeSSIF pH 5.8, 37° C., 0 hours): 100 Area % | Amount in Area % of compound example No. 3 ([4]; Acetate Salt, FeSSIF pH 5.8, 37° C., 1 hours): 99.1 Area % | Amount in Area % of compound example No. 3 ([4]; Acetate Salt, FeSSIF pH 5.8, 37° C., 2.5 hours): 98.9 Area % | Amount in Area % of compound example No. 3 ([4]; Acetate Salt, FeSSIF pH 5.8, 37° C., 4 hours): 98 Area % | Amount in Area % of compound example No. 3 ([4]; Acetate Salt, FeSSIF pH 5.8, 37° C., 7 hours): 97.5 Area % | Amount in Area % of compound example No. 3 ([4]; Acetate Salt, SGF pH 2, 37° C., 0 hours): 100 Area % | Amount in Area % of compound example No. 3 ([4]; Acetate Salt, SGF pH 2, 37° C., 1 hours): 96.4 Area % | Amount in Area % of compound example No. 3 ([4]; Acetate Salt, SGF pH 2, 37° C., 2.5 hours): 93.2 Area % | Amount in Area % of compound example No. 3 ([4]; Acetate Salt, SGF pH 2, 37° C., 4 hours): 92.4 Area % | Amount in Area % of compound example No. 3 ([4]; Acetate Salt, SGF pH 2, 37° C., 7 hours): 90.0 Area % | Amount in Area % of compound example No. 3 ([4]; Free Form, FaSSIF pH 6.5, 37° C., 0 hours): 100 Area % | Amount in Area % of compound example No. 3 ([4]; Free Form, FaSSIF pH 6.5, 37° C., 1 hours): 100 Area % | Amount in Area % of compound example No. 3 ([4]; Free Form, FaSSIF pH 6.5, 37° C., 2.5 hours): 100 Area % | Amount in Area % of compound example No. 3 ([4]; Free Form, FaSSIF pH 6.5, 37° C., 4 hours): 90.7 Area % | Amount in Area % of compound example No. 3 ([4]; Free Form, FaSSIF pH 6.5, 37° C., 7 hours): 82.5 Area % | Amount in Area % of compound example No. 3 ([4]; Free Form, FeSSIF pH 5.8, 37° C., 0 hours): 100 Area % | Amount in Area % of compound example No. 3 ([4]; Free Form, FeSSIF pH 5.8, 37° C., 1 hours): 100 Area % | Amount in Area % of compound example No. 3 ([4]; Free Form, FeSSIF pH 5.8, 37° C., 2.5 hours): 100 Area % | Amount in Area % of compound example No. 3 ([4]; Free Form, FeSSIF pH 5.8, 37° C., 4 hours): 99.2 Area % | Amount in Area % of compound example No. 3 ([4]; Free Form, FeSSIF pH 5.8, 37° C., 7 hours): 98.7 Area % | Amount in Area % of compound example No. 3 ([4]; Free Form, SGF pH 2, 37° C., 0 hours): 98.8 Area % | Amount in Area % of compound example No. 3 ([4]; Free Form, SGF pH 2, 37° C., 1 hours): 98.6 Area % | Amount in Area % of compound example No. 3 ([4]; Free Form, SGF pH 2, 37° C., 2.5 hours): 98.1 Area % | Amount in Area % of compound example No. 3 ([4]; Free Form, SGF pH 2, 37° C., 4 hours): 97.9 Area % | Amount in Area % of compound example No. 3 ([4]; Free Form, SGF pH 2, 37° C., 7 hours): 97.9 Area % | solubility ([5]; FaSSIF pH 6.5): 30 µg/mL (≈ 64.7 µM) | solubility ([5]; FeSSIF pH 5.8): 280 µg/mL (≈ 604 µM) | solubility ([5]; simulated gastric fluid, SGF pH 2): 120 µg/mL (≈ 259 µM) | IC50 [6]: 0.2 nM
